In patent publication US9408850B2, “Substituted indazole derivatives active as kinase inhibitors” (NERVIANO MEDICAL SCIENCES S.R.L., priority 2011, dated 2016) one finds IC50 data, which are given here for 15 compounds.

For assay [1], the system named is MV-4-11 cells, bearing a FLT3-ITD mutation. Briefly: In vitro cell proliferation assay (CellTiter-Glo), MV-4-11. The assay is classed as cell-based. Particulars: Homo sapiens, MV4-11, MV-4-11, 72 h. How it is done: (§1) The human acute leukemia MOLM-13 AND MV-4-11 cells, bearing a FLT3-ITD mutation, were seeded (5000 cells/well) in white 384 well-plates in complete medium (RPMI 1640 plus 10% Fetal bovine serum) and treated with compounds dissolved in 0.1% DMSO, 24 h after seeding. The cells were incubated at 37° C. and 5% CO2 and after 72 h the plates were processed using CellTiter-Glo assay (Promega) following the manufacturer's instruction.
(§2) CellTiter-Glo is a homogenous method based on the quantification of the ATP present, an indicator of metabolitically active cells. ATP was quantified using a system based on luciferase and D-luciferin resultant into light generation. The luminescent signal was proportional to the number of cells present in culture.
(§3) Briefly, 25 microL/well reagent solution were added to each well and, after 5 minutes shaking, microplates were read by Envision (PerkinElmer) luminometer. Inhibitory activity was evaluated comparing treated versus control data using Symyx Assay Explorer (Symyx Technologies Inc.) program. IC50 was calculated using sigmoidal interpolation curve.

The target in assay [2] is FLT3 cytoplasmic domain (GST fused protein) (Homo sapiens (Human), UniProt P36888). Description: Biochemical assay for inhibitors of FLT3 kinase activity. Particulars: 2 nM pre activated enzyme, 254 microM ATP, 60 minutes at r.t. How it is done:
FLT3 cytoplasmic domain (aa 564-993end of the 993 aminoacid long full length sequence, accession number P36888 of UniProtKB/Swiss-Prot. database) was amplified by PCR starting from a testis cDNA library and then cloned into pVL vector for expression in insect cells through the baculovirus system. The GST-FLT3 cytoplasmic domain has been expressed in Sf21 cells infected for 72 hours at 27° C. The recombinant protein has been purified by affinity on GSH-sepharose and eluted with glutathione. A further purification step has been performed on heparine sepharose. […] General Principle-A specific peptidic substrate was trans-phosphorylated by the kinase in the presence of ATP traced with 33Pγ-ATP. At the end of the phosphorylation reaction, the not reacted ATP, cold and radioactive, was captured by an excess of dowex ion exchange resin that eventually settled by gravity to the bottom of the reaction plate. The supernatant was subsequently withdrawn and transferred into a counting plate that was then evaluated by β-counting. • ii. Dowex resin preparation-500 g of wet resin (SIGMA, custom prepared resin DOWEX 1×8 200-400 mesh, 2.5 Kg) were weighed out and diluted to 2 L in 150 mM sodium formate, pH 3.00. The resin was allowed to settle down overnight and then the supernatant was discarded. After three washes as above over a couple of days, the resin was allowed to settle and two volumes (with respect to the resin volume) were added of 150 mM sodium formate buffer. Biochemical Assay for Inhibitors of FLT3 Kinase Activity • i. Enzyme-The assay was performed using FLT3 cytoplasmic domain product and purified in house as GST fused protein. […] NO: 1). The peptide was purchased from American Peptide Company (Sunnyvale, Calif.). Biochemical Assay for Inhibitors of KIT Kinase Activity • i. Enzyme-The assay has been performed using KIT cytoplasmic domain product and purified in house as GST fused protein. […] NO: 2). The peptide was purchased from American Peptide Company (Sunnyvale, Calif.). Compound Testing • i. […] An automated station for serial dilutions (Biomek FX, Beckman) was used for producing 1:3 dilutions in 100% DMSO, from line A1 to A10, and for all the compounds in the column. […] The following dispensation into the plates plus 3 cycles of mixing, done by the robot itself, started the kinase reaction. At this point, the correct concentrations were restored for all the reagents. The robot incubated the plates for 60 minutes at r.t., and then stopped the reaction by pipetting 60 microL of dowex resin suspension into the reaction mix. In order to avoid tip clogging, wide bore tips were used to dispense the resin suspension. Three cycles of mixing were done immediately after the addition of the resin. Another mixing cycle was performed after all the plates were stopped, this time using normal tips: the plates were then allowed to rest for about one hour in order to allow resin sedimentation. […] Data Fitting-Data were analyzed by an internally customized version of the SW package “Assay Explorer” that provided sigmoidal fitting of the ten-dilutions curves for IC50 determination in the secondary assays/hit confirmation routines. Cell-Based Assays for Inhibitors of FLT3 Kinase Activity In vitro Cell Proliferation Assay for Inhibitors of FLT3 Kinase Activity

Assay [3] concerns the target KIT cytoplasmic domain (GST fused protein) (Homo sapiens (Human), UniProt P10721). Briefly: Biochemical assay for inhibitors of KIT kinase activity. Particulars: 4 nM pre activated enzyme, 4.4 microM ATP, 60 minutes at r.t. How it is done: KIT cytoplasmic domain (aa 544-976end of the 976 aminoacid long full length sequence, accession number P10721 of UniProtKB/Swiss-Prot database) was cloned into pVL vector for expression in insect cells through the baculovirus system. The GST-KIT cytoplasmic domain has been expressed in Sf21 cells infected for 66 hrs at 27° C. The recombinant protein has been purified by affinity on GSH-sepharose and eluted with glutathione. […] General Principle-A specific peptidic substrate was trans-phosphorylated by the kinase in the presence of ATP traced with 33Pγ-ATP. At the end of the phosphorylation reaction, the not reacted ATP, cold and radioactive, was captured by an excess of dowex ion exchange resin that eventually settled by gravity to the bottom of the reaction plate. The supernatant was subsequently withdrawn and transferred into a counting plate that was then evaluated by β-counting. • ii. Dowex resin preparation-500 g of wet resin (SIGMA, custom prepared resin DOWEX 1×8 200-400 mesh, 2.5 Kg) were weighed out and diluted to 2 L in 150 mM sodium formate, pH 3.00. The resin was allowed to settle down overnight and then the supernatant was discarded. After three washes as above over a couple of days, the resin was allowed to settle and two volumes (with respect to the resin volume) were added of 150 mM sodium formate buffer. Biochemical Assay for Inhibitors of FLT3 Kinase Activity • i. Enzyme-The assay was performed using FLT3 cytoplasmic domain product and purified in house as GST fused protein. […] The peptide was purchased from American Peptide Company (Sunnyvale, Calif.). Biochemical Assay for Inhibitors of KIT Kinase Activity • i. Enzyme-The assay has been performed using KIT cytoplasmic domain product and purified in house as GST fused protein. […] NO: 2). The peptide was purchased from American Peptide Company (Sunnyvale, Calif.). Compound Testing • i. […] An automated station for serial dilutions (Biomek FX, Beckman) was used for producing 1:3 dilutions in 100% DMSO, from line A1 to A10, and for all the compounds in the column. […] The following dispensation into the plates plus 3 cycles of mixing, done by the robot itself, started the kinase reaction. At this point, the correct concentrations were restored for all the reagents. The robot incubated the plates for 60 minutes at r.t., and then stopped the reaction by pipetting 60 microL of dowex resin suspension into the reaction mix. In order to avoid tip clogging, wide bore tips were used to dispense the resin suspension. Three cycles of mixing were done immediately after the addition of the resin. Another mixing cycle was performed after all the plates were stopped, this time using normal tips: the plates were then allowed to rest for about one hour in order to allow resin sedimentation. […] Data Fitting-Data were analyzed by an internally customized version of the SW package “Assay Explorer” that provided sigmoidal fitting of the ten-dilutions curves for IC50 determination in the secondary assays/hit confirmation routines. Cell-Based Assays for Inhibitors of FLT3 Kinase Activity In vitro Cell Proliferation Assay for Inhibitors of FLT3 Kinase Activity

In assay [4] the test system is MOLM-13 cells, bearing a FLT3-ITD mutation. Briefly: In vitro cell proliferation assay (CellTiter-Glo), MOLM-13. Particulars: Homo sapiens, MOLM-13, 72 h. The assay is classed as cell-based. The method, then:
as §1, §2, §3

Chain of KIT cytoplasmic domain (GST fused protein) (P10721 544-976): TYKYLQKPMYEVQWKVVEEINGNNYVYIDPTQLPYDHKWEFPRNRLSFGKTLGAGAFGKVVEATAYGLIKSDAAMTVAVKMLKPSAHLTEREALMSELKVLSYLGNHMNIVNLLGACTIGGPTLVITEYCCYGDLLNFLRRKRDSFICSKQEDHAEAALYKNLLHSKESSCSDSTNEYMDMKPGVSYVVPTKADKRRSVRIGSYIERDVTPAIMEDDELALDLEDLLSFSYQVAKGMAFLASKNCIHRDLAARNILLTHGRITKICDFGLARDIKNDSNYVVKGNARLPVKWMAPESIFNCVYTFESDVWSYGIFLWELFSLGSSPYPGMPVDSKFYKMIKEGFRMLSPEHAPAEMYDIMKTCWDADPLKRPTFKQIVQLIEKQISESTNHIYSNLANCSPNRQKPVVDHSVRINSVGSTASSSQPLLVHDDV
Chain of FLT3 cytoplasmic domain (GST fused protein) (P36888 564-993): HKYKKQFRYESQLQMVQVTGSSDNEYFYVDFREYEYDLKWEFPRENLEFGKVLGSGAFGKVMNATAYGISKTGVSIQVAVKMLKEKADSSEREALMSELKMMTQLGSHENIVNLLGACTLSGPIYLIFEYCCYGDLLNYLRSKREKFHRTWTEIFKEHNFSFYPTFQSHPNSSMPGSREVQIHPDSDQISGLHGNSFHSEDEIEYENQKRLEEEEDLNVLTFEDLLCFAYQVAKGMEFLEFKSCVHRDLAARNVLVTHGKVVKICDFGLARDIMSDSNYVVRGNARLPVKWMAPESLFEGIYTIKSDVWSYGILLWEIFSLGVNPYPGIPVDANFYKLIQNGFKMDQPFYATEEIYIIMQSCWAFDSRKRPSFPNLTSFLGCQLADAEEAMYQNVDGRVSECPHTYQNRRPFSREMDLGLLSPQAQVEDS

As to `CN1CCN(c2ccc(C(=O)Nc3n[nH]c4cc(OCCOCc5ccccc5F)ccc34)cc2)CC1` [Cpd. 30, N-{6-[2-(2-Fluoro-benzyloxy)-ethoxy]-1H-indazol-3-yl}-4-(4-methyl-piperazin-1-yl)-benzamide], the IC50 in assay [1] is under 50 nM; in assay [2], 166 nM; in assay [3], 1400 nM; in assay [4] it was under 50 nM.
Turning to `CN(C)Cc1ccc(C(=O)Nc2n[nH]c3cc(OCCOCc4ccccc4)ccc23)cc1` [Cpd. 21, N-[6-(2-Benzyloxy-ethoxy)-1H-indazol-3-yl]-4-dimethylaminomethyl-benzamide], the half-inhibitory concentration (IC50) in assay [1] was under 50 nM; in assay [2] it was 104 nM; in assay [3] it was 134 nM.
Take `O=C(Nc1n[nH]c2cc(OCCOCc3ccccc3)ccc12)c1ccc(N2CCNCC2)cc1` [Cpd. 20, N-[6-(2-Benzyloxy-ethoxy)-1H-indazol-3-yl]-4-piperazin-1-yl-benzamide]: the IC50 in assay [1] was under 50 nM; in assay [2] it was under 50 nM; in assay [3] it was 52 nM; in assay [4], under 50 nM.
For `O=C(Nc1n[nH]c2cc(OCCOCc3ccccc3)ccc12)c1ccc(NC2CCOCC2)cc1` [Cpd. 26, N-[6-(2-Benzyloxy-ethoxy)-1H-indazol-3-yl]-4-(tetrahydro-pyran-4-ylamino)-benzamide], the IC50 in assay [1] is under 50 nM; in assay [2], 90 nM; in assay [3] it was 124 nM; in assay [4], under 50 nM.
As to `O=C(Nc1n[nH]c2cc(OCCOCc3ccccc3)ccc12)c1ccc(N2CCOCC2)cc1` [Cpd. 24, N-[6-(2-Benzyloxy-ethoxy)-1H-indazol-3-yl]-4-morpholin-4-yl-benzamide], the IC50 in assay [1] was under 50 nM; in assay [2], 162 nM; in assay [3] it was 260 nM; in assay [4], under 50 nM.
As to `CN1CCN(c2ccc(C(=O)Nc3n[nH]c4cc(OCc5cccc(Oc6ccccc6)c5)ccc34)cc2)CC1` [Cpd. 5, 4-(4-Methyl-piperazin-1-yl)-N-[6-(3-phenoxy-benzyloxy)-1H-indazol-3-yl]-benzamide], the half-inhibitory concentration (IC50) in assay [2] came to 1170 nM; in assay [3], 2620 nM.
Taken in the same sequence, the figures for `CN1CCN(c2ccc(C(=O)Nc3n[nH]c4cc(OCCOCc5ccc(C(F)(F)F)cc5)ccc34)cc2)CC1` [Cpd. 33, 4-(4-Methyl-piperazin-1-yl)-N-{6-[2-(4-trifluoromethyl-benzyloxy)-ethoxy]-1H-indazol-3-yl}-benzamide] were under 50 nM and under 50 nM.
Taken in the same sequence, the figures for `CN1CCC(Nc2ccc(C(=O)Nc3n[nH]c4cc(OCCOCc5ccccc5)ccc34)cc2)CC1` [Cpd. 19, N-[6-(2-Benzyloxy-ethoxy)-1H-indazol-3-yl]-4-(1-methyl-piperidin-4-ylamino)-benzamide] were under 50 nM and 61 nM.
Taken in the same sequence, the figures for `CN(C)CCCN(C)c1ccc(C(=O)Nc2n[nH]c3cc(OCCOCc4ccccc4)ccc23)cc1` [Cpd. 17, N-[6-(2-Benzyloxy-ethoxy)-1H-indazol-3-yl]-4-[(3-dimethylamino-propyl)-methyl-amino]-benzamide] were 62 nM and 146 nM.
Regarding `CN1CCN(c2ccc(C(=O)Nc3n[nH]c4cc(OCCOCc5ccccc5)ccc34)c(F)c2)CC1` [Cpd. 38, N-[6-(2-Benzyloxy-ethoxy)-1H-indazol-3-yl]-2-fluoro-4-(4-methyl-piperazin-1-yl)-benzamide], the IC50 in assay [2] is 539 nM; in assay [3], 613 nM.
In the case of `CN1CCN(c2ccc(C(=O)Nc3n[nH]c4cc(OCC#Cc5ccccc5)ccc34)cc2)CC1` [Cpd. 7, 4-(4-Methyl-piperazin-1-yl)-N-[6-(3-phenyl-prop-2-ynyloxy)-1H-indazol-3-yl]-benzamide], the IC50 came out at 249 nM in assay [2] and 1500 nM in assay [3].
Taken in the same sequence, the figures for `C[N+]1([O-])CCN(c2ccc(C(=O)Nc3n[nH]c4cc(OCCOCc5ccccc5)ccc34)cc2)CC1` [Cpd. 14, N-[6-(2-Benzyloxy-ethoxy)-1H-indazol-3-yl]-4-(4-methyl-4-oxy-piperazin-1-yl)-benzamide] were under 50 nM and 118 nM.
As to `CN(C)c1ccc(C(=O)Nc2n[nH]c3cc(OCc4ccccc4)ccc23)cc1` [Ref. Compound, reference compound], the half-maximal inhibitory concentration (IC50) is 3180 nM in assay [2] and over 10000 nM in assay [3].
With `CN1CCN(c2ccc(C(=O)Nc3n[nH]c4cc(OCCOCc5cccc(C(F)(F)F)c5)ccc34)cc2)CC1` [Cpd. 34, 4-(4-Methyl-piperazin-1-yl)-N-{6-[2-(3-trifluoromethyl-benzyloxy)-ethoxy]-1H-indazol-3-yl}-benzamide], the IC50 was found to be 56 nM in assay [2] and 58 nM in assay [3].
On to `CN1CCN(c2ccc(C(=O)Nc3n[nH]c4cc(OCc5ccccc5)ccc34)cc2)CC1` [Cpd. 1, N-(6-Benzyloxy-1H-indazol-3-yl)-4-(4-methyl-piperazin-1-yl)-benzamide], for which the IC50 in assay [2] is 428 nM; in assay [3] it was 2800 nM.

Broadly, the IC50 is the concentration that inhibits the measured activity by half.
